# Counter-ions that a name gives are not always drawn.
# Target: T1, human V1a receptor (Homo sapiens, UniProt P37288)
# T1 construct: expressed in transfected cells; host or cells: HEK293 cells, transiently transfected; cell membranes prepared
# Assay: human V1a receptor binding study (3H-Vasopressin, SPA beads, HEK293 membranes)
# Details: not given
# Experimental: The human V1a receptor was cloned by RT-PCR from total human liver RNA. The coding sequence was subcloned in an expression vector after sequencing to confirm the identity of the amplified sequence. […] Cell membranes were prepared from HEK293 cells transiently transfected with the expression vector and grown in 20 liter fermenters with the following protocol.
# 50 g of cells are resuspended in 30 ml freshly prepared ice cold Lysis buffer (50 mM HEPES, 1 mM EDTA, 10 mM magnesium dichloride adjusted to pH=7.4+complete cocktail of protease inhibitor (Roche Diagnostics)). Homogenized with Polytron for 1 min and sonicated on ice for 2×2 minutes at 80% intensity (Vibracell sonicator). The preparation is centrifuged 20 min at 500 g at 4° C., the pellet is discarded and the supernatant centrifuged 1 hour at 43,000 g at 4° C. (19,000 rpm). The pellet is resuspended in 12.5 ml Lysis buffer+12.5 ml Sucrose 20% and homogenized using a Polytron for 1-2 min. The protein concentration is determined by the Bradford method and aliquots are stored at −80° C. until use. For binding studies 60 mg Yttrium silicate SPA beads (Amersham) are mixed with an aliquot of membrane in binding buffer (50 mM Tris, 120 mM sodium chloride, 5 mM potassium chloride, 2 mM Calcium dichloride, 10 mM magnesium dichloride) for 15 minutes with mixing. 50 μl of bead/membrane mixture is then added to each well of a 96 well plate, followed by 50 μl of 4 nM 3H-Vasopressin (American Radiolabeled Chemicals). For total binding measurement 100 μl of binding buffer are added to the respective wells, for non-specific binding 100 μl of 8.4 mM cold vasopressin and for compound testing 100 μl of a serial dilution of each compound in 2% dimethyl sulfoxide. The plate is incubated 1 h at room temperature, centrifuged 1 min at 1000 g and counted on a Packard Top-Count. Non-specific binding counts are subtracted from each well and data is normalized to the maximum specific binding set at 100%. To calculate an IC 50 the curve is fitted using a non-linear regression model (XLfit) and the Ki is calculated using the Cheng-Prussoff equation.
# T1 sequence (P37288 whole entry): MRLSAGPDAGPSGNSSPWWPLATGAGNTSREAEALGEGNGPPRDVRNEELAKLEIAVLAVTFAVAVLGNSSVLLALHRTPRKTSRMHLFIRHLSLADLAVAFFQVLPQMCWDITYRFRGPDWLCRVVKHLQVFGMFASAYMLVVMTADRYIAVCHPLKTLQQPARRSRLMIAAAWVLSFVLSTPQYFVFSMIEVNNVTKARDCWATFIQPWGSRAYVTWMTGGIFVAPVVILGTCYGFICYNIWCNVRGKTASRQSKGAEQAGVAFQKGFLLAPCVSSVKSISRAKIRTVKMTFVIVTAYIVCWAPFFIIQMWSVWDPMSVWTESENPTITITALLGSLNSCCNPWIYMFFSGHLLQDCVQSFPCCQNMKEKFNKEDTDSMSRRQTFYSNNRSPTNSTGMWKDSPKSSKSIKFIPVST
row,SMILES,Ki [nM]
1,"CC(C)(C)OC(=O)N1Cc2cc(Cl)ccc2-n2c(nnc2[C@H]2CC[C@H](OC3COC3)CC2)C1 [Example 57, trans-8-Chloro-1-[4-(oxetan-3-yloxy)-cyclohexyl]-4H,6H-2,3,5,10b-tetraaza-benzo[e]azulene-5-carboxylic acid tert-butyl ester]",6.17

# Same assay, conditions: membranes of HEK293 cells transiently transfected with human V1a receptor; 3H-Vasopressin; Ki calculated using the Cheng-Prussoff equation; read-out: pKi (hV1a) (converted)
row,SMILES,Ki [nM]
1,"Clc1ccc2c(c1)CNCc1nnc([C@H]3CC[C@@H](OC4CCCCC4)CC3)n1-2 [Example 43, cis-8-Chloro-1-(4-cyclohexyloxy-cyclohexyl)-5,6-dihydro-4H-2,3,5,10b-tetraaza-benzoazulene hydrochloride]",174
2,"CC(C)O[C@H]1CC[C@H](c2nnc3n2-c2ccc(Cl)cc2CN(S(C)(=O)=O)C3)CC1 [Example 11, trans-8-Chloro-1-(4-isopropoxy-cyclohexyl)-5-methanesulfonyl-5,6-dihydro-4H-2,3,5,10b-tetraaza-benzoazulene]",1.1
3,"COC[C@@H](C)O[C@H]1CC[C@H](c2nnc3n2-c2ccc(Cl)cc2CN(C)C3)CC1 (stereo in doubt) [Example 49, (−)-trans-8-Chloro-1-[4-(2-methoxy-1-methyl-ethoxy)-cyclohexyl]-5-methyl-5,6-dihydro-4H-2,3,5,10b-tetraaza-benzo[e]azulene]",5.5
4,"CCO[C@H]1CC[C@H](c2nnc3n2-c2ccc(Cl)cc2CN(C)C3)CC1 [Example 4, trans-8-Chloro-1-(4-ethoxy-cyclohexyl)-5-methyl-5,6-dihydro-4H-2,3,5,10b-tetraaza-benzo[e]azulene]",6.76
5,"CCO[C@H]1CC[C@@H](c2nnc3n2-c2ccc(Cl)cc2CN(C(=O)OC(C)(C)C)C3)CC1 [Example 5, cis-8-Chloro-1-(4-ethoxy-cyclohexyl)-4H,6H-2,3,5,10b-tetraaza-benzo[e]azulene-5-carboxylic acid tert-butyl ester]",14.1
6,"CN1Cc2cc(Cl)ccc2-n2c(nnc2[C@H]2CC[C@H](OC3COC3)CC2)C1 [Example 58, trans-8-Chloro-5-methyl-1-[4-(oxetan-3-yloxy)-cyclohexyl]-5,6-dihydro-4H-2,3,5,10b-tetraaza-benzo[e]azulene]",46.8
7,"CC[C@H](C)O[C@H]1CC[C@H](c2nnc3n2-c2ccc(Cl)cc2CN(C)C3)CC1 (single isomer, unassigned) [Example 28, (+)-trans-1-(4-sec-Butoxy-cyclohexyl)-8-chloro-5-methyl-5,6-dihydro-4H-2,3,5,10b-tetraaza-benzo[e]azulene]",1.58
8,"COCC(C)O[C@H]1CC[C@H](c2nnc3n2-c2ccc(Cl)cc2CN(C(=O)OC(C)(C)C)C3)CC1 (mixture of isomers) [Example 45, (RS)-trans-8-Chloro-1-[4-(2-methoxy-1-methyl-ethoxy)-cyclohexyl]-4H,6H-2,3,5,10b-tetraaza-benzo[e]azulene-5-carboxylic acid tert-butyl ester]",3.72
9,"CN1Cc2cc(Cl)ccc2-n2c(nnc2[C@H]2CC[C@@H](OC3CCCCC3)CC2)C1 [Example 44, cis-8-Chloro-1-(4-cyclohexyloxy-cyclohexyl)-5-methyl-5,6-dihydro-4H-2,3,5,10b-tetraaza-benzoazulene]",14.1
10,"CC(C)O[C@H]1CC[C@H](c2nnc3n2-c2ccc(F)cc2CNC3)CC1 [Example 20, trans-8-Fluoro-1-(4-isopropoxy-cyclohexyl)-5,6-dihydro-4H-2,3,5,10b-tetraaza-benzo[e]azulene hydrochloride]",251
11,"CC(CC(F)(F)F)O[C@H]1CC[C@H](c2nnc3n2-c2ccc(Cl)cc2CNC3)CC1 (mixture of isomers) [Example 55, (RS)-trans-8-Chloro-1-[4-(3,3,3-trifluoro-1-methyl-propoxy)-cyclohexyl]-5,6-dihydro-4H-2,3,5,10b-tetraaza-benzo[e]azulene hydrochloride]",75.9
12,"CC(C)O[C@H]1CC[C@H](c2nnc3n2-c2ccc(Cl)cc2CN(Cc2ccccn2)C3)CC1 [Example 15, trans-8-Chloro-1-(4-isopropoxy-cyclohexyl)-5-pyridin-2-ylmethyl-5,6-dihydro-4H-2,3,5,10b-tetraaza-benzoazulene]",1.41
